Measured values: patent US20250388605A1, “HETEROBIFUNCTIONAL COMPOUNDS AND METHODS OF TREATING DISEASE” (Halda Therapeutics OpCo, Inc., priority 2022, published 2025)

Test system: T47D cells
Experiment: Cellular Growth Inhibition Assay for T47D Cells (CellTiter-Glo)
Assay type: cell-based, human
Conditions: 72 hours
Protocol: Exemplary compounds were tested for ability to inhibit the proliferation of T47D cells. T47D cells are a commercially available human breast cancer cell line.
T47D cells were purchased from American Type Cell Culture (ATCC Cat #HTB-133) and then seeded on poly-D-lysine coated, black clear-bottom 384-well plates at 3000/well in 25 μL Dulbecco's Modified Eagle Medium (DMEM) supplemented with 10% w/w Fetal bovine serum (FBS), 0.2 units/mL recombinant human insulin (Gibco Cat #12585014), and 1% w/w Pen-Strep. Pen-Strep is a commercially available mixture of penicillin G and streptomycin, which is used in mammalian cell culture media to prevent bacterial contamination. Dulbecco's Modified Eagle Medium (DMEM) supplemented with 10% w/w fetal bovine serum (FBS), 0.2 units/mL recombinant human insulin, and 1% w/w Pen-Strep is herein referred to as Treatment Medium. Following seeding of cells in the plates, the plates were spun at 300×g for 30 seconds, then equilibrated to room temperature for 30 minutes, and then deposited in a humidified tissue culture incubator maintained at 37° C. with 5% CO2.
At 24 hours after seeding of the cells, dilutions of test compound were prepared in DMSO and dissolved in Treatment Medium, to achieve a final DMSO concentration of 0.5% w/w, thereby providing the Test Compound Solution. A 25 μL aliquot of the Test Compound Solution was added to cells in the well plates. An equal volume of a solution containing DMSO and Treatment Medium was used as a negative control. Following treatment of cells with Test Compound Solution or said equal volume of a solution containing DMSO and Treatment Medium, the plates were spun at 300×g for 30 seconds, and then left in an incubator for 72 hours.
At the end of the treatment duration, cell viability was quantified with CellTiter-Glo 2.0 reagent (Promega Cat #G9243). For this purpose, plates were equilibrated to room temperature for 30 minutes, and then 25 μL of CellTiter-Glo 2.0 reagent was added to cells in the plate wells. Plates were then agitated on a shaker for two minutes at 500 rpm and subsequently incubated at room temperature for 10 minutes. Following incubation, the plates were spun at 3000×g for 30 seconds, then sealed with an optical adhesive cover, and luminescence readings were measured with an EnVision Plate Reader (Perkin Elmer).
Data was normalized using zero luminescence for baseline. A four-parameter non-linear regression curve fit was applied to dose-response data in GraphPad Prism data analysis software to determine the half-maximal growth inhibitory concentration (GI50) for each test compound.

Structure (SMILES)	GI50
CC(C)c1ccc(Oc2cccc(OCCC3CCN(c4ncc(C(=O)N[C@H]5C(C)(C)[C@H](Oc6ccc(C#N)c(Cl)c6)C5(C)C)cn4)CC3)c2)c(-c2cn(C)c(=O)c3[nH]ccc23)c1 [Compound I-141]	500 to 1500 nM
Cn1cc(-c2cc(C(C)(C)O)ccc2Oc2ccc(N3CC4(C3)CN(c3cnc(C(=O)N[C@H]5C(C)(C)[C@H](Oc6ccc(C#N)c(Cl)c6)C5(C)C)cn3)C4)cc2)c2cc[nH]c2c1=O [Compound I-355]	< 500 nM
Cn1cc(-c2cc(C(C)(C)O)ccc2Oc2ccc(N3CC(C4CCCN(c5ncc(C(=O)N[C@H]6C(C)(C)[C@H](Oc7ccc(C#N)c(Cl)c7)C6(C)C)cn5)CCC4)C3)cc2)c2cc[nH]c2c1=O [Compound I-362]	< 500 nM
Cn1cc(-c2cc(C(C)(C)O)ccc2Oc2cccc(CC3CCN(c4ncc(C(=O)N[C@H]5C(C)(C)[C@H](Oc6ccc(C#N)c(Cl)c6)C5(C)C)cn4)CC3)c2)c2cc[nH]c2c1=O [Compound I-374]	500 to 1500 nM
Cn1cc(-c2cc(C(C)(C)O)ccc2Oc2cccc(N3CC(CC4CCN(c5ncc(C(=O)N[C@H]6C(C)(C)[C@H](Oc7ccc(C#N)c(Cl)c7)C6(C)C)cn5)CC4)C3)c2)c2cc[nH]c2c1=O [Compound I-376]	< 500 nM
Cn1cc(-c2cc(C(C)(C)O)ccc2Oc2ccccc2)c2cc(C(=O)NC3CC(CC4CCN(c5ccc(C(=O)N[C@H]6C(C)(C)[C@H](Oc7ccc(C#N)c(Cl)c7)C6(C)C)nc5)CC4)C3)[nH]c2c1=O (some centres unmarked) [Compound I-378]	> 3000 nM
Cn1cc(-c2cc(C(C)(C)O)ccc2Oc2ccc(N3CC(C4CCN(c5ccc(C(=O)N[C@H]6C(C)(C)[C@H](Oc7ccc(C#N)c(Cl)c7)C6(C)C)cn5)CC4)C3)cc2)c2cc[nH]c2c1=O [Compound I-382]	< 500 nM

Further lines, results first:

GI50	Structure (SMILES)
> 3000 nM	Cn1cc(-c2ccccc2Oc2ccc(N3CC(CC4CCN(c5ncc(C(=O)N[C@H]6C(C)(C)[C@H](Oc7ccc(C#N)c(Cl)c7)C6(C)C)cn5)CC4)C3)cc2)c2cc[nH]c2c1=O [Compound I-359]
500 to 1500 nM	Cn1cc(-c2ccccc2Oc2ccc(N3CC(C4CCN(c5ncc(C(=O)N[C@H]6C(C)(C)[C@H](Oc7ccc(C#N)c(Cl)c7)C6(C)C)cn5)CC4)C3)cc2)c2cc[nH]c2c1=O [Compound I-360]
< 500 nM	Cn1cc(-c2ccccc2Oc2ccc(N3CC(CC4CCN(c5cnc(C(=O)N[C@H]6C(C)(C)[C@H](Oc7ccc(C#N)c(Cl)c7)C6(C)C)cn5)CC4)C3)cc2)c2cc[nH]c2c1=O [Compound I-361]
< 500 nM	Cn1cc(-c2ccccc2Oc2ccc(N3CC(CC4CN(c5ncc(C(=O)N[C@H]6C(C)(C)[C@H](Oc7ccc(C#N)c(Cl)c7)C6(C)C)cn5)C4)C3)cc2)c2cc[nH]c2c1=O [Compound I-363]
> 3000 nM	Cn1cc(-c2ccccc2Oc2ccc(N3CC(CC4CCN(c5ccc(C(=O)N[C@H]6C(C)(C)[C@H](Oc7ccc(C#N)c(Cl)c7)C6(C)C)nc5)CC4)C3)cc2)c2cc[nH]c2c1=O [Compound I-364]
< 500 nM	Cn1cc(-c2ccccc2Oc2ccc(N3CC(C4CCN(c5cnc(C(=O)N[C@H]6C(C)(C)[C@H](Oc7ccc(C#N)c(Cl)c7)C6(C)C)cn5)CC4)C3)cc2)c2cc[nH]c2c1=O [Compound I-365]
500 to 1500 nM	Cn1cc(-c2cc(C(C)(C)O)ccc2Oc2ccc(N3CC(C4CCN(c5cnc(C(=O)N[C@H]6C(C)(C)[C@H](Oc7ccc(C#N)c(Cl)c7)C6(C)C)cn5)CC4)C3)cc2)c2cc[nH]c2c1=O [Compound I-381]
< 500 nM	COc1cc(O[C@H]2C(C)(C)[C@H](NC(=O)c3cnc(N4CCC(CC5CN(c6ccc(Oc7ccc(C(C)(C)O)cc7-c7cn(C)c(=O)c8[nH]ccc78)cc6)C5)CC4)cn3)C2(C)C)ccc1C#N [Compound I-384]

Same assay, conditions: Homo sapiens, 72 hours

Structure (SMILES)	GI50
Cn1cc(-c2cc(C(C)(C)O)ccc2Oc2ccc(CC3CC4(CCN(c5ncc(C(=O)N[C@H]6C(C)(C)[C@H](Oc7ccc(C#N)c(Cl)c7)C6(C)C)cn5)CC4)C3)cc2)c2cc[nH]c2c1=O [Compound I-324]	< 500 nM
Cn1cc(-c2cc(C(C)(C)O)ccc2Oc2ccc(C3CC(CC4CCN(c5ncc(C(=O)N[C@H]6C(C)(C)[C@H](Oc7ccc(C#N)c(Cl)c7)C6(C)C)cn5)CC4)C3)cc2)c2cc[nH]c2c1=O (some centres unmarked) [Compound I-354]	< 500 nM
Cn1cc(-c2cc(C(C)(C)O)ccc2Oc2ccc(C#CC3CC4(C3)CN(c3ncc(C(=O)NC5C(C)(C)C(Oc6ccc(C#N)c(Cl)c6)C5(C)C)cn3)C4)cc2)c2cc[nH]c2c1=O (centres unmarked) [Compound I-357, N-[3-(3-chloro-4-cyano-phenoxy)-2,2,4,4-tetramethyl-cyclobutyl]-2-[6-[2-[4-[4-(1-hydroxy-1-methyl-ethyl)-2-(6-methyl-7-oxo-1H-pyrrolo[2,3-c]pyridin-4-yl)phenoxy]phenyl]ethynyl]-2-azaspiro[3.3]heptan-2-yl]pyrimidine-5-carboxamide]	< 500 nM
Cn1cc(-c2ccccc2Oc2ccc(OC3CC4(C3)CC3(CCN(c5ncc(C(=O)N[C@H]6C(C)(C)[C@H](Oc7ccc(C#N)c(Cl)c7)C6(C)C)cn5)CC3)C4)cc2)c2cc[nH]c2c1=O [Compound I-358]	> 3000 nM
Cn1cc(-c2cc(C(C)(C)O)ccc2Oc2ccc(OC3CC4(C3)CC3(CCN(c5cnc(C(=O)N[C@H]6C(C)(C)[C@H](Oc7ccc(C#N)c(Cl)c7)C6(C)C)cn5)CC3)C4)cc2)c2cc[nH]c2c1=O [Compound I-366]	> 3000 nM
Cn1cc(-c2cc(C(C)(C)O)ccc2Oc2ccc(OC3CC4(C3)CC3(CCN(c5ccc(C(=O)N[C@H]6C(C)(C)[C@H](Oc7ccc(C#N)c(Cl)c7)C6(C)C)nc5)CC3)C4)cc2)c2cc[nH]c2c1=O [Compound I-367]	> 3000 nM
Cn1cc(-c2cc(C(C)(C)O)ccc2Oc2ccc(CC3CCN(c4ccc(C(=O)N[C@H]5C(C)(C)[C@H](Oc6ccc(C#N)c(Cl)c6)C5(C)C)nc4)CC3)cc2)c2cc[nH]c2c1=O [Compound I-368]	< 500 nM
Cn1cc(-c2cc(C(C)(C)O)ccc2Oc2ccc(CC3CCN(c4ccc(C(=O)N[C@H]5C(C)(C)[C@H](Oc6ccc(C#N)c(Cl)c6)C5(C)C)cn4)CC3)cc2)c2cc[nH]c2c1=O [Compound I-369]	< 500 nM
Cn1cc(-c2cc(C(C)(C)O)ccc2Oc2ccc(CC3CCN(c4cnc(C(=O)N[C@H]5C(C)(C)[C@H](Oc6ccc(C#N)c(Cl)c6)C5(C)C)cn4)CC3)cc2)c2cc[nH]c2c1=O [Compound I-370]	< 500 nM
Cn1cc(-c2cc(C(C)(C)O)ccc2Oc2ccc(N3CC(C[C@@H]4[C@H]5CN(c6ncc(C(=O)N[C@H]7C(C)(C)[C@H](Oc8ccc(C#N)c(Cl)c8)C7(C)C)cn6)C[C@@H]45)C3)cc2)c2cc[nH]c2c1=O [Compound I-372]	< 500 nM
Cn1cc(-c2cc(C(C)(C)O)ccc2Oc2ccc(CC3CC4(CCN(c5cnc(C(=O)N[C@H]6C(C)(C)[C@H](Oc7ccc(C#N)c(Cl)c7)C6(C)C)cn5)CC4)C3)cc2)c2cc[nH]c2c1=O [Compound I-375]	> 3000 nM
Cn1cc(-c2cc(C(C)(C)O)ccc2Oc2ccccc2)c2cc(C(=O)NC3CC(CC4CCN(c5ccc(C(=O)NC6C(C)(C)C(Oc7ccc(C#N)c(Cl)c7)C6(C)C)nc5)CC4)C3)[nH]c2c1=O (centres unmarked) [Compound I-377, N-[3-[[1-[6-[[3-(3-chloro-4-cyano-phenoxy)-2,2,4,4-tetramethyl-cyclobutyl]carbamoyl]-3-pyridyl]-4-piperidyl]methyl]cyclobutyl]-4-[5-(1-hydroxy-1-methyl-ethyl)-2-phenoxy-phenyl]-6-methyl-7-oxo-1H-pyrrolo[2,3-c]pyridine-2-carboxamide]	> 3000 nM
Cn1cc(-c2cc(C(C)(C)O)ccc2Oc2ccc(CC3CC4(CCN(c5ccc(C(=O)N[C@H]6C(C)(C)[C@H](Oc7ccc(C#N)c(Cl)c7)C6(C)C)nc5)CC4)C3)cc2)c2cc[nH]c2c1=O [Compound I-379]	1500 to 3000 nM
Cn1cc(-c2cc(C(C)(C)O)ccc2Oc2ccc(CC3CC4(CCN(c5ccc(C(=O)N[C@H]6C(C)(C)[C@H](Oc7ccc(C#N)c(Cl)c7)C6(C)C)cn5)CC4)C3)cc2)c2cc[nH]c2c1=O [Compound I-380]	500 to 1500 nM

The next lines start with the values.

GI50	Structure (SMILES)
< 500 nM	Cn1cc(-c2ccccc2Oc2ccc(OCC3CCN(c4ncc(C(=O)NC5C(C)(C)C(Oc6ccc(C#N)c(Cl)c6)C5(C)C)cn4)CC3)cc2)c2cc[nH]c2c1=O (centres unmarked) [Compound I-356, N-[3-(3-chloro-4-cyano-phenoxy)-2,2,4,4-tetramethyl-cyclobutyl]-2-[4-[[4-[2-(6-methyl-7-oxo-1H-pyrrolo[2,3-c]pyridin-4-yl)phenoxy]phenoxy]methyl]-1-piperidyl]pyrimidine-5-carboxamide]
< 500 nM	Cn1cc(-c2ccccc2Oc2ccc(CC3CCN(c4cnc(C(=O)N[C@H]5C(C)(C)[C@H](Oc6ccc(C#N)c(Cl)c6)C5(C)C)cn4)CC3)cc2)c2cc[nH]c2c1=O [Compound I-371]
< 500 nM	Cn1cc(-c2cc(C(C)(C)O)ccc2Oc2ccc(N3CC(CC4CCN(c5cnc(C(=O)N[C@H]6C(C)(C)[C@H](Oc7ccc(C#N)c(F)c7)C6(C)C)cn5)CC4)C3)cc2)c2cc[nH]c2c1=O [Compound I-383]
